Source: PubChem BioAssay AID1963834 (Molecular Pharmacology Branch, DTP, NCI, 2024)

Tested on: 873145-292-R-J1-PDC complex spheroid viability
Assay: Anticancer human tumor 873145-292-R-J1-PDC patient-derived renal clear cell carcinoma cell line growth inhibition [POLQ]
Conditions: for IC50: curve of first compound; for viability, T/C: stronger effect = lower value
Method in brief: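 Three-cell-type spheroids modelling solid tumor plus stroma served as the readout system; POL inhibitors were tested individually and in combination, concentration ranges set by clinical Cmax where known.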

[1] = second compound 0.0316 µM, first compound 0.0316 µM
[2] = second compound 0.0316 µM, first compound 0.1 µM
[3] = second compound 0.0316 µM, first compound 0.316 µM
[4] = second compound 0.0316 µM, first compound 1 µM
[5] = second compound 0.1 µM, first compound 0.0316 µM
[6] = second compound 0.1 µM, first compound 0.1 µM
[7] = second compound 0.1 µM, first compound 0.316 µM
[8] = second compound 0.1 µM, first compound 1 µM
[9] = second compound 0.316 µM, first compound 0.0316 µM
[10] = second compound 0.316 µM, first compound 0.1 µM
[11] = second compound 0.316 µM, first compound 0.316 µM
[12] = second compound 0.316 µM, first compound 1 µM
[13] = second compound 1 µM, first compound 0.0316 µM
[14] = second compound 1 µM, first compound 0.1 µM
[15] = second compound 1 µM, first compound 0.316 µM
[16] = second compound 1 µM, first compound 1 µM
[17] = second compound 3.16 µM, first compound 0.0316 µM
[18] = second compound 3.16 µM, first compound 0.1 µM
[19] = second compound 3.16 µM, first compound 0.316 µM
[20] = second compound 3.16 µM, first compound 1 µM
[21] = second compound 10 µM, first compound 0.0316 µM
[22] = second compound 10 µM, first compound 0.1 µM
[23] = second compound 10 µM, first compound 0.316 µM
[24] = second compound 10 µM, first compound 1 µM
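Further: spheroids exposed to compounds for 7 days before viability readout.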
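Wherever viability, T/C is given: luminescence signal used as surrogate for viable cell content; 100% = DMSO vehicle control viability.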

Question: For `COc1cccc(OCCCN)c1-c1cc(Nc2cnc(C#N)cn2)n[nH]1` + Cc1cccc(N(C)C(=O)C2C(O)CCN2c2nc(C)cc(C(F)(F)F)c2C#N)c1, which IC50 (second compound 0.0316 µM) is on record?
Answer: Its IC50 is greater than 1 µM.

Question: And the IC50 (second compound 0.1 µM)?
Answer: The IC50 was greater than 1 µM.

Question: And the IC50 (second compound 0.316 µM)?
Answer: Its IC50 is greater than 1 µM.

Question: What about the IC50 (second compound 1 µM) of the same compound?
Answer: Its IC50 is greater than 1 µM.

Question: What about the IC50 (second compound 3.16 µM) of the same compound?
Answer: Its IC50 is greater than 1 µM.

Question: What about the IC50 (second compound 10 µM) of the same compound?
Answer: The IC50 was greater than 1 µM.

Question: And the viability, T/C (second compound 0.0316 µM, first compound 0.00316 µM)?
Answer: The viability, T/C was 102%.

Question: And the viability, T/C (second compound 0.0316 µM, first compound 0.01 µM)?
Answer: The viability, T/C was 111%.

Question: What about the viability, T/C [1] of the same compound?
Answer: Its viability, T/C is 77.8%.

Question: What about the viability, T/C [2] of the same compound?
Answer: Its viability, T/C is 69.7%.

Question: And the viability, T/C [3]?
Answer: The viability, T/C was 74.8%.

Question: And the viability, T/C [4]?
Answer: Its viability, T/C is 78.3%.

Question: And the viability, T/C (second compound 0.1 µM, first compound 0.00316 µM)?
Answer: Its viability, T/C is 104%.

Question: What about the viability, T/C (second compound 0.1 µM, first compound 0.01 µM) of the same compound?
Answer: Its viability, T/C is 103%.

Question: And the viability, T/C [5]?
Answer: The viability, T/C was 65.9%.

Question: And the viability, T/C [6]?
Answer: The viability, T/C was 73.7%.

Question: And the viability, T/C [7]?
Answer: The viability, T/C was 66.5%.

Question: What about the viability, T/C [8] of the same compound?
Answer: The viability, T/C was 82.1%.

Question: What about the viability, T/C (second compound 0.316 µM, first compound 0.00316 µM) of the same compound?
Answer: Its viability, T/C is 95.5%.

Question: And the viability, T/C (second compound 0.316 µM, first compound 0.01 µM)?
Answer: The viability, T/C was 91.5%.

Question: And the viability, T/C [9]?
Answer: Its viability, T/C is 72.7%.

Question: And the viability, T/C [10]?
Answer: Its viability, T/C is 73.9%.

Question: What about the viability, T/C [11] of the same compound?
Answer: Its viability, T/C is 75.6%.

Question: What about the viability, T/C [12] of the same compound?
Answer: The viability, T/C was 83%.

Question: And the viability, T/C (second compound 1 µM, first compound 0.00316 µM)?
Answer: The viability, T/C was 98.2%.

Question: What about the viability, T/C (second compound 1 µM, first compound 0.01 µM) of the same compound?
Answer: Its viability, T/C is 90.3%.

Question: What about the viability, T/C [13] of the same compound?
Answer: The viability, T/C was 77.5%.

Question: And the viability, T/C [14]?
Answer: The viability, T/C was 70.8%.

Question: And the viability, T/C [15]?
Answer: Its viability, T/C is 81.8%.

Question: What about the viability, T/C [16] of the same compound?
Answer: The viability, T/C was 79.1%.

Question: What about the viability, T/C (second compound 3.16 µM, first compound 0.00316 µM) of the same compound?
Answer: The viability, T/C was 98.9%.

Question: And the viability, T/C (second compound 3.16 µM, first compound 0.01 µM)?
Answer: The viability, T/C was 91.7%.

Question: And the viability, T/C [17]?
Answer: Its viability, T/C is 84.7%.

Question: And the viability, T/C [18]?
Answer: The viability, T/C was 82.3%.

Question: What about the viability, T/C [19] of the same compound?
Answer: Its viability, T/C is 67.7%.

Question: And the viability, T/C [20]?
Answer: The viability, T/C was 77.3%.

Question: And the viability, T/C (second compound 10 µM, first compound 0.00316 µM)?
Answer: Its viability, T/C is 88.1%.

Question: What about the viability, T/C (second compound 10 µM, first compound 0.01 µM) of the same compound?
Answer: Its viability, T/C is 93.6%.

Question: And the viability, T/C [21]?
Answer: Its viability, T/C is 91.2%.

Question: What about the viability, T/C [22] of the same compound?
Answer: Its viability, T/C is 74.7%.

Question: What about the viability, T/C [23] of the same compound?
Answer: Its viability, T/C is 88.6%.

Question: What about the viability, T/C [24] of the same compound?
Answer: The viability, T/C was 91.8%.

Question: `O=C(c1cc(Cc2n[nH]c(=O)c3ccccc23)ccc1F)N1CCN(C(=O)C2CC2)CC1` + Cc1cccc(N(C)C(=O)C2C(O)CCN2c2nc(C)cc(C(F)(F)F)c2C#N)c1 was tested. Which IC50 (second compound 0.0316 µM) did it give?
Answer: The IC50 was greater than 10 µM.

Question: What about the IC50 (second compound 0.1 µM) of the same compound?
Answer: Its IC50 is greater than 10 µM.

Question: What about the IC50 (second compound 0.316 µM) of the same compound?
Answer: The IC50 was greater than 10 µM.

Question: And the IC50 (second compound 1 µM)?
Answer: Its IC50 is greater than 10 µM.

Question: What about the IC50 (second compound 3.16 µM) of the same compound?
Answer: The IC50 was greater than 10 µM.

Question: What about the IC50 (second compound 10 µM) of the same compound?
Answer: Its IC50 is greater than 10 µM.

Question: What about the viability, T/C [1] of the same compound?
Answer: The viability, T/C was 104%.

Question: And the viability, T/C [2]?
Answer: The viability, T/C was 110%.

Question: What about the viability, T/C [3] of the same compound?
Answer: The viability, T/C was 87.7%.

Question: What about the viability, T/C [4] of the same compound?
Answer: Its viability, T/C is 101%.

Question: And the viability, T/C (second compound 0.0316 µM, first compound 3.16 µM)?
Answer: Its viability, T/C is 102%.

Question: And the viability, T/C (second compound 0.0316 µM, first compound 10 µM)?
Answer: The viability, T/C was 94.8%.

Question: What about the viability, T/C [5] of the same compound?
Answer: The viability, T/C was 103%.

Question: What about the viability, T/C [6] of the same compound?
Answer: Its viability, T/C is 104%.

Question: What about the viability, T/C [7] of the same compound?
Answer: The viability, T/C was 90.4%.

Question: What about the viability, T/C [8] of the same compound?
Answer: Its viability, T/C is 102%.

Question: And the viability, T/C (second compound 0.1 µM, first compound 3.16 µM)?
Answer: Its viability, T/C is 99.9%.

Question: And the viability, T/C (second compound 0.1 µM, first compound 10 µM)?
Answer: Its viability, T/C is 90.8%.

Question: What about the viability, T/C [9] of the same compound?
Answer: The viability, T/C was 94.4%.

Question: And the viability, T/C [10]?
Answer: The viability, T/C was 92.1%.

Question: What about the viability, T/C [11] of the same compound?
Answer: Its viability, T/C is 103%.

Question: And the viability, T/C [12]?
Answer: The viability, T/C was 88.4%.

Question: And the viability, T/C (second compound 0.316 µM, first compound 3.16 µM)?
Answer: The viability, T/C was 106%.

Question: What about the viability, T/C (second compound 0.316 µM, first compound 10 µM) of the same compound?
Answer: The viability, T/C was 92.2%.

Question: What about the viability, T/C [13] of the same compound?
Answer: The viability, T/C was 103%.

Question: What about the viability, T/C [14] of the same compound?
Answer: The viability, T/C was 89%.

Question: What about the viability, T/C [15] of the same compound?
Answer: Its viability, T/C is 87.8%.

Question: What about the viability, T/C [16] of the same compound?
Answer: Its viability, T/C is 106%.

Question: What about the viability, T/C (second compound 1 µM, first compound 3.16 µM) of the same compound?
Answer: The viability, T/C was 94.3%.

Question: And the viability, T/C (second compound 1 µM, first compound 10 µM)?
Answer: Its viability, T/C is 87.7%.

Question: And the viability, T/C [17]?
Answer: The viability, T/C was 92.9%.

Question: And the viability, T/C [18]?
Answer: Its viability, T/C is 93.2%.

Question: And the viability, T/C [19]?
Answer: The viability, T/C was 111%.

Question: What about the viability, T/C [20] of the same compound?
Answer: Its viability, T/C is 103%.

Question: What about the viability, T/C (second compound 3.16 µM, first compound 3.16 µM) of the same compound?
Answer: The viability, T/C was 96.8%.

Question: What about the viability, T/C (second compound 3.16 µM, first compound 10 µM) of the same compound?
Answer: Its viability, T/C is 98.9%.

Question: And the viability, T/C [21]?
Answer: The viability, T/C was 100%.

Question: And the viability, T/C [22]?
Answer: Its viability, T/C is 93.3%.

Question: And the viability, T/C [23]?
Answer: Its viability, T/C is 91%.

Question: And the viability, T/C [24]?
Answer: The viability, T/C was 102%.

Question: And the viability, T/C (second compound 10 µM, first compound 3.16 µM)?
Answer: The viability, T/C was 102%.

Question: And the viability, T/C (second compound 10 µM, first compound 10 µM)?
Answer: Its viability, T/C is 107%.
